Measurements: patent US9540371B2, “Substituted quinazolin-4(3H)-ones, pyrido[3,4-d]pyrimidin-4(3H)-ones, pyrido[3,2-d]pyrimidin-4(3H)-ones and pyrido[2,3-d]pyrimidin-4(3H)-ones as positive allosteric modulators of muscarinic acetycholine receptor M1” (Vanderbilt University, priority 2013, dated 2017)

target: T1, mAChR M1 (UniProt P11229); experiment: mAChR M1 cell-based functional assay (calcium mobilization, PAM mode); details: calcium flux in CHO-K1 cells expressing mAChR M1; increase in the EC20 acetylcholine response; >10 μM estimated where no plateau but >20% increase in ACh response
T1 sequence (P11229 1-460): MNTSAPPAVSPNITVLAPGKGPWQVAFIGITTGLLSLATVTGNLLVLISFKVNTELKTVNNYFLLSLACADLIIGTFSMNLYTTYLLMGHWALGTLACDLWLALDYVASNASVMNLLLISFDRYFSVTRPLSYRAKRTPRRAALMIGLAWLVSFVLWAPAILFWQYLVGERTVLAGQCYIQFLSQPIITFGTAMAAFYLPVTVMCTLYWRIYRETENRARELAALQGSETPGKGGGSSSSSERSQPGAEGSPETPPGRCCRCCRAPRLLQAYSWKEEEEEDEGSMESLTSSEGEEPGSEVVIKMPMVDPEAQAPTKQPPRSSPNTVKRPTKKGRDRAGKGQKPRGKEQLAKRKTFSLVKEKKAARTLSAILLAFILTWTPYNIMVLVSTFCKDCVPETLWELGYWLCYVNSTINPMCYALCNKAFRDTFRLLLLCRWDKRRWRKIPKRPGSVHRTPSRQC
Excerpt: Chinese hamster ovary (CHO-K1) cells stably expressing rat (r)M1 were purchased from the American Type Culture Collection and cultured according to their indicated protocol. CHO cells stably expressing human (h)M2, hM3, and hM5 were described previously (Levey, A. I., et al., J Neurosci. 1991, 11, 3218-3226.); hM1 and hM4 cDNAs were purchased from Missouri S&T cDNA Resource; rM4 cDNA was provided by T. I. Bonner (National Institutes of Health, Bethesda, Md.). rM2 and rM3 were cloned from a rat brain cDNA library and sequence verified. hM1, rM2, rM3, hM4, and rM4 cDNAs were used to stably transfect CHO-K1 cells purchased from the American Type Culture Collection using Lipofectamine® 2000 (Thermo Fisher Scientific Inc.). To make stable rM2, hM2, hM4, and rM4 cell lines for use in calcium mobilization assays, these cells also were stably transfected with a chimeric G-protein (Gqi5) (provided by B. R. Conklin, University of California, San Francisco) using Lipofectamine® 2000. rM1, hM1, rM3, hM3, rM5, and hM5 cells were grown in Ham's F-12 medium containing 10% heat-inactivated fetal bovine serum (FBS), 20 mM HEPES, and 50 μg/mL G418 sulfate. rM2-Gqi5, hM2-Gqi5, and hM4-Gqi5 cells were grown in the same medium also containing 500 μg/mL hygromycin B. Stable rM4-Gqi5 cells were grown in DMEM containing 10% heat-inactivated FBS, 20 mM HEPES, 400 μg/mL G418 sulfate, and 500 μg/mL hygromycin B.
For high throughput measurement of agonist-evoked increases in intracellular calcium, CHO-K1 cells stably expressing muscarinic receptors were plated in growth medium lacking G418 and hygromycin B at 15,000 cells/20 μL/well in Greiner 384-well black-walled, tissue culture (TC)-treated, clear-bottom plates (VWR). Cells were incubated overnight at 37° C. and 5% CO2. The next day, cells were washed using an ELX 405 (BioTek) with four washes (80 μL) of assay buffer then aspirated to 20 μL. Next, 20 μL of 16 μM Fluo-4/acetoxymethyl ester (Invitrogen, Carlsbad, Calif.) prepared as a 2.3 mM stock in DMSO and mixed in a 1:1 ratio with 10% (w/v) Pluronic F-127 and diluted in assay buffer was added to the wells and the cell plates were incubated for 50 min at 37° C. and 5% CO2. Dye was removed by washing with the ELX 405 (four 80 μL washes of assay buffer) then aspirated to 20 μL. Compound master plates were formatted in an 11 point CRC format (1:3 dilutions) in 100% DMSO with a starting concentration of 10 mM using the BRAVO liquid handler (Agilent). Test compound CRCs were then transferred to daughter plates (240 nL) using the Echo acoustic plate reformatter (Labcyte, Sunnyvale, Calif.) and then diluted into assay buffer (40 μL) to a 2× stock using a Thermo Fisher Combi (Thermo Fisher Scientific, Waltham, Mass.).
Calcium flux was measured using the Functional Drug Screening System (FDSS) 6000 (Hamamatsu Corporation, Tokyo, Japan) as an increase in the fluorescent static ratio. Compounds were applied to cells (20 μL, 2X) using the automated system of the FDSS 6000 at 4 s into the 300 s protocol and the data were collected at 1 Hz. At 144 s into the 300 s protocol, 10 μL of an EC20 concentration of the muscarinic receptor agonist acetylcholine was added (5X), followed by the addition of […] concentration of acetylcholine at the 230 s time point (5X). Agonist activity was analyzed as a concentration—dependent increase in calcium mobilization upon compound addition. Positive allosteric modulator activity was analyzed as a concentration-dependent increase in the EC20 acetylcholine response. Antagonist activity was analyzed as a concentration-dependent decrease in the EC80 acetylcholine response. Concentration-response curves were generated using a four -parameter logistical equation in XLFit curve fitting software (IDBS, Bridgewater, N.J.) for Excel (Microsoft, Redmond, Wash.) or Prism (GraphPad Software, Inc., San Diego, Calif.).
The calcium mobilization assay was also used to determine “efficacy”. […]

Q: How did the EC50 turn out when `Cn1cc(-c2ccc(Cn3cnc4cnccc4c3=O)cc2)cn1` [Compound B9] was run?
A: Its EC50 is 4.9 µM.

Q: With `O=c1c2cccnc2ncn1Cc1ccc(-n2cccn2)cc1` [Compound B5] as the molecule, how does the EC50 read?
A: The EC50 was over 10 µM.

Q: How did the EC50 turn out when `Cn1cc2c(-c3cc(F)c(Cn4cnc5cccnc5c4=O)c(F)c3)cccc2n1` [Compound B12] was run?
A: Its EC50 is 3.6 µM.

Q: How did the EC50 turn out when `Cn1cc(-c2ccc(Cn3cnc4ncccc4c3=O)cc2)cn1` [Compound B6] was run?
A: The EC50 was over 10 µM.

Q: Which EC50 does the source give for `Cn1cc2c(-c3cc(F)c(Cn4cnc5cnccc5c4=O)c(F)c3)cccc2n1` [Compound B7, 3-(2,6-Difluoro-4-(2-Methyl-2H-Indazol-4-yl)Benzyl)Pyrido[3,4-D]Pyrimidin-4(3H)-one] here?
A: The EC50 was 0.6 µM.

Q: For `O=c1c2ccccc2ncn1Cc1ccc(-n2cccn2)cc1` [Compound B2], which EC50 is on record?
A: The EC50 was over 10 µM.

Q: With `Cn1cc(-c2ccc(Cn3cnc4ccccc4c3=O)cc2)cn1` [Compound B3] as the molecule, how does the EC50 read?
A: Its EC50 is over 10 µM.

Q: With `Cn1cc(-c2ccc(Cn3cnc4cccnc4c3=O)cc2)cn1` [Compound B11] as the molecule, how does the EC50 read?
A: Its EC50 is over 10 µM.

Q: How did the EC50 turn out when `O=c1c2ncccc2ncn1Cc1ccc(-n2cccn2)cc1` [Compound B10] was run?
A: The EC50 was over 10 µM.

Q: With `O=c1c2ccncc2ncn1Cc1ccc(-n2cccn2)cc1` [Compound B8] as the molecule, how does the EC50 read?
A: The EC50 was over 10 µM.
